# Experimental data: PMC2914800 (Biochemistry, 2010)
# How the values were obtained:
# HasAp [1] = target: HasAp (Pseudomonas aeruginosa, UniProt G3XD33); experiment: stopped-flow UV-vis kinetics at […] °C; type: binding
# HasAp [2] = target: T1, HasAp (Pseudomonas aeruginosa, UniProt G3XD33, H32A); experiment: stopped-flow UV-vis kinetics at […] °C; type: binding
# T1 sequence (G3XD33 1-184 H32A): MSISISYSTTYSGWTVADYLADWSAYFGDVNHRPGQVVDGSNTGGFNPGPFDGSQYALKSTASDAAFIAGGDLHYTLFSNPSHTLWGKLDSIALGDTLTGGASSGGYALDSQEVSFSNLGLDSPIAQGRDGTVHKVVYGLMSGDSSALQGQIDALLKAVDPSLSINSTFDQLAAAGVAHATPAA
smiles,measurement,setting,value
C=CC1=C(C)C2=Cc3c(C=C)c(C)c4[n]3[Fe]([Cl])[n]3c(c(C)c(CCC(=O)O)c3=CC3=NC(=C4)C(C)=C3CCC(=O)O)=CC1=N2 [hemin],Kd,HasAp [1],35 µM
same,Kd,HasAp [2],61 µM
